In one assay the test system is LNcap. Kind of assay: CCK-8 tumor cell proliferation, LNcap. As to conditions: 96 h, read-out: IC50 for inhibiting the proliferation of tumor cells, LNcap. Type of assay: cell-based, Human. As to the method: (§1) Determination of half inhibitory concentration (IC50) of the compounds against tumor cells:
(§2) The tumor cells used herein were cultured in a cell culture medium listed in table 6 at 37° C. in an incubator with 5% CO2. Prior to experimentation, all cells used were correctly identified by STR profiling, and tested negative for mycoplasma through routine screenings.
(§3) IC50 values of the compounds of the present disclosure (including the compounds in Table 4 and compounds of examples 1-72) were measured using the Meilun Cell Counting Kit-S kit from Dalian Meilun Biotech Co., Ltd. Assay details are as follows: tumor cells were seeded in a 96-well plate at a density listed in Table 7. After 24 h, 100 μL of the inoculated cells were treated with 0.5 μL of the compounds of the present disclosure (including the compounds in Table 4 and compounds of examples 1-72) at 10 different successively decreasing concentrations (starting at the highest concentration of 10 μM; 5-fold serial dilutions). After the cells were treated with the compounds of the present disclosure for a period of time (the treatment times listed in Table 7), the cell viability detection reagent was added to the culture medium for cell viability assessment according to the instructions provided with the CCK-8 kit. […] The growth inhibition of the compounds of the present disclosure on cells was plotted by Prism Graphpad software, and the IC50 values of the compounds of the present disclosure were calculated therefrom.

A further assay deals with DU-145. Briefly: CCK-8 tumor cell proliferation, DU-145. Format: cell-based, Human. As to conditions: DU-145, 96 h, read-out: IC50 for inhibiting the proliferation of tumor cells, DU-145. The procedure: as §1
(§4) The tumor cells used herein were cultured in a cell culture medium listed in table 6 at 37° C. in an incubator with 5% CO2.
(§5) After the cells were treated with the compounds of the present disclosure for a period of time (the treatment times listed in Table 7), the cell viability detection reagent was added to the culture medium for cell viability assessment according to the instructions provided with the CCK-8 kit. […] The growth inhibition of the compounds of the present disclosure on cells was plotted by Prism Graphpad software, and the IC50 values of the compounds of the present disclosure were calculated therefrom.

For the next assay, the system named is WSU-DLCL2. Kind of assay: CCK-8 tumor cell proliferation, WSU-DLCL2. Conditions: read-out: IC50 for inhibiting the proliferation of tumor cells, WSU-DLCL2. Type of assay: cell-based, Human. As to the method: as §1, §4, §5
The subject of another assay is MGC80-3. Kind of assay: CCK-8 tumor cell proliferation, MGC80-3. Type of assay: cell-based, Human. As to conditions: read-out: IC50 for inhibiting the proliferation of tumor cells, MGC80-3. As to the method: as §1, §2, §3
A further assay concerns PC-3. Briefly: CCK-8 tumor cell proliferation, PC-3. Type of assay: cell-based, Human. As to conditions: PC-3, 96 h, read-out: IC50 for inhibiting the proliferation of tumor cells, PC-3. The procedure: as §1, §4, §5
The test system of another assay is Hep3B2.1-7. Kind of assay: CCK-8 tumor cell proliferation, Hep3B2.1-7. Format: cell-based, Human. As to conditions: Homo sapiens, Hep3B2.1-7, 96 h, read-out: IC50 for inhibiting the proliferation of tumor cells, Hep3B2.1-7. The procedure: as §1, §2, §3
The subject of the next assay is A549. Briefly: CCK-8 tumor cell proliferation, A549. Format: cell-based, Human. As to conditions: Homo sapiens, A549, 96 h, read-out: IC50 for inhibiting the proliferation of tumor cells, A549. As to the method:
as §1, §2, §3

For a further assay, the system named is Kasumi-1. Kind of assay: CCK-8 tumor cell proliferation, Kasumi-1. Type of assay: cell-based. As to conditions: Homo sapiens, Kasumi-1, 72 h, read-out: IC50 for inhibiting the proliferation of tumor cells, Kasumi-1. As to the method:
as §1, §4, §5

Another assay has as its system SU-DHL-6. Kind of assay: CCK-8 tumor cell proliferation, SU-DHL-6. Format: cell-based. As to conditions: Homo sapiens, SU-DHL-6, 72 h, read-out: IC50 for inhibiting the proliferation of tumor cells, SU-DHL-6. The procedure: as §1, §4, §5
The mark [1] stands for this setting: Homo sapiens, WSUDLCL2, WSU-DLCL2, 96 h.
The mark [2] stands for this setting: Homo sapiens, MGC-803, MGC80-3, 96 h.

Where two headings read alike, the source gives them in different places.

Turning to `N#Cc1ccc(OC2CCC(NC(=O)c3ccc(N4CCC(CN5CC6CC(C5)N6c5ccc6c(c5)C(=O)N(C5CCC(=O)NC5=O)C6=O)CC4)nn3)CC2)cc1Cl` (stereo not shown) [GT-03339, N-((1r,4r)-4-(3-chloro-4-cyanophenoxy)cyclohexyl)-6-(4-((6-(2-(2,6-dioxopiperidin-3-yl)-1,3-dioxoisoindolin-5-yl)-3,6-diazabicyclo[3.1.1]heptan-3-yl)methyl)piperidin-1-yl)pyridazine-3-carboxamide], the IC50 with LNcap lay within 100 to 500 nM; in the assay with DU-145, 100 to 500 nM; in the assay with WSU-DLCL2 (WSU-DLCL2, 96 h), 100 to 500 nM; in the assay on MGC80-3 (MGC80-3, 96 h), 50 to 100 nM; in the assay on PC-3, 100 to 500 nM.
Regarding `CC1(C)[C@H](NC(=O)c2ccc(N3CCC(CN4C5CCC4CN(c4ccc6c(c4)C(=O)N(C4CCC(=O)NC4=O)C6=O)C5)CC3)nn2)C(C)(C)[C@H]1Oc1ccc(C#N)c(Cl)c1` (stereo partly shown) [GT-03399, N-((1r,3r)-3-(3-chloro-4-cyanophenoxy)-2,2,4,4-tetramethylcyclobutyl)-6-(4-((3-(2-(2,6-dioxopiperidin-3-yl)-1,3-dioxoisoindolin-5-yl)-3,8-diazabicyclo[3.2.1]octan-8-yl)methyl)piperidin-1-yl)pyridazine-3-carboxamide], the IC50 in the assay with LNcap (Homo sapiens) was in the range of 100 to 500 nM; in the assay with DU-145 (Homo sapiens), 100 to 500 nM; in the assay with WSU-DLCL2 (setting [1]) it was 500 to 1000 nM; in the assay with Hep3B2.1-7, 100 to 500 nM; with PC-3 (Homo sapiens), 100 to 500 nM.
Consider `CC1(C)[C@H](NC(=O)c2ccc(N3CCC(CN4CC5CC(C4)N5c4ccc5c(c4)C(=O)N(C4CCC(=O)NC4=O)C5=O)CC3)nn2)C(C)(C)[C@H]1Oc1ccc(C#N)c(Cl)c1` (stereo partly shown) [GT-03400, N-((1r,3r)-3-(3-chloro-4-cyanophenoxy)-2,2,4,4-tetramethylcyclobutyl)-6-(4-((6-(2-(2,6-dioxopiperidin-3-yl)-1,3-dioxoisoindolin-5-yl)-3,6-diazabicyclo[3.1.1]heptan-3-yl)methyl)piperidin-1-yl)pyridazine-3-carboxamide], for which the IC50 with LNcap (Homo sapiens) fell in the range of 100 to 500 nM; in the assay with DU-145 (Homo sapiens), 100 to 500 nM; in the assay on WSU-DLCL2 (setting [1]), 500 to 1000 nM; in the assay with MGC80-3 (setting [2]), 100 to 500 nM; in the assay with PC-3 (Homo sapiens), 100 to 500 nM.
As to `CC1(C)[C@H](NC(=O)c2ccc(N3CCC(CN4C5CC4CN(c4ccc6c(c4)C(=O)N(C4CCC(=O)NC4=O)C6=O)C5)CC3)nn2)C(C)(C)[C@H]1Oc1ccc(C#N)c(Cl)c1` (stereo partly shown) [GT-03401, N-((1r,3r)-3-(3-chloro-4-cyanophenoxy)-2,2,4,4-tetramethylcyclobutyl)-6-(4-((3-(2-(2,6-dioxopiperidin-3-yl)-1,3-dioxoisoindolin-5-yl)-3,6-diazabicyclo[3.1.1]heptan-6-yl)methyl)piperidin-1-yl)pyridazine-3-carboxamide], the IC50 is 500 to 1000 nM in the assay on LNcap (Homo sapiens); 500 to 1000 nM with DU-145 (Homo sapiens); 1000 to 5000 nM in the assay with WSU-DLCL2 (setting [1]); 100 to 500 nM with MGC80-3 (setting [2]); 100 to 500 nM in the assay on PC-3 (Homo sapiens).
Turning to `CC1(C)[C@H](NC(=O)c2ccc(N3CCC(CN4CC5CC(C4)N5c4cc5c(cc4F)C(=O)N(C4CCC(=O)NC4=O)C5=O)CC3)nc2)C(C)(C)[C@H]1Oc1ccc(C#N)c(Cl)c1` (stereo partly shown) [GT-03403, N-((1r,3r)-3-(3-chloro-4-cyanophenoxy)-2,2,4,4-tetramethylcyclobutyl)-6-(4-((6-(2-(2,6-dioxopiperidin-3-yl)-6-fluoro-1,3-dioxoisoindolin-5-yl)-3,6-diazabicyclo[3.1.1]heptan-3-yl)methyl)piperidin-1-yl)nicotinamide], the IC50 in the assay on LNcap (Homo sapiens) was in the range of 500 to 1000 nM; in the assay on DU-145 (Homo sapiens), 100 to 500 nM; in the assay on WSU-DLCL2 (setting [1]), 5000 to 10000 nM; with MGC80-3 (setting [2]), 500 to 1000 nM; in the assay on PC-3 (Homo sapiens), 100 to 500 nM.
Consider `CC1(C)[C@H](NC(=O)c2ccc(N3CCC(CN4CC5CCC4CN5c4ccc5c(c4)C(=O)N(C4CCC(=O)NC4=O)C5=O)CC3)nc2)C(C)(C)[C@H]1Oc1ccc(C#N)c(Cl)c1` (stereo partly shown) [GT-03481, N-((1r,3r)-3-(3-chloro-4-cyanophenoxy)-2,2,4,4-tetramethylcyclobutyl)-6-(4-((5-(2-(2,6-dioxopiperidin-3-yl)-1,3-dioxoisoindolin-5-yl)-2,5-diazabicyclo[2.2.2]octan-2-yl)methyl)piperidin-1-yl)nicotinamide], for which the IC50 is 100 to 500 nM in the assay on LNcap (Homo sapiens); 100 to 500 nM with WSU-DLCL2 (setting [1]); at most 50 nM with Hep3B2.1-7; 100 to 500 nM in the assay on MGC80-3 (setting [2]); 100 to 500 nM with A549.
As for `CC1(C)[C@H](NC(=O)c2ccc(N3CCC(CN4CC5CCC4CN5c4cc5c(cc4F)C(=O)N(C4CCC(=O)NC4=O)C5=O)CC3)nc2)C(C)(C)[C@H]1Oc1ccc(C#N)c(Cl)c1` (stereo partly shown) [GT-03494, N-((1r,3r)-3-(3-chloro-4-cyanophenoxy)-2,2,4,4-tetramethylcyclobutyl)-6-(4-((5-(2-(2,6-dioxopiperidin-3-yl)-6-fluoro-1,3-dioxoisoindolin-5-yl)-2,5-diazabicyclo[2.2.2]octan-2-yl)methyl)piperidin-1-yl)nicotinamide], the IC50 in the assay on LNcap (Homo sapiens) lay in the range of 50 to 100 nM; with DU-145 (Homo sapiens), 1000 to 5000 nM; with WSU-DLCL2 (setting [1]), 50 to 100 nM; in the assay with Hep3B2.1-7, 50 to 100 nM; with MGC80-3 (setting [2]) it was 50 to 100 nM; in the assay on A549, 100 to 500 nM.
On to `Cc1nc(Nc2ncc(C(=O)Nc3c(C)cccc3Cl)s2)cc(N2CCC(CN3CC4CCC(C3)N4c3cc4c(cc3F)C(=O)N(C3CCC(=O)NC3=O)C4=O)CC2)n1` (stereo not shown) [GT-03627, N-(2-chloro-6-methylphenyl)-2-((6-(4-((8-(2-(2,6-dioxopiperidin-3-yl)-6-fluoro-1,3-dioxoisoindolin-5-yl)-3,8-diazabicyclo[3.2.1]octan-3-yl)methyl)piperidin-1-yl)-2-methylpyrimidin-4-yl)amino)thiazole-5-carboxamide], for which the IC50 in the assay on Kasumi-1 and with SU-DHL-6 was 100 to 500 nM throughout.
On to `Cc1nc(Nc2ncc(C(=O)Nc3c(C)cccc3Cl)s2)cc(N2CCC(CN3CC4CC(C3)N4c3cc4c(cc3F)C(=O)N(C3CCC(=O)NC3=O)C4=O)CC2)n1` (stereo not shown) [GT-03628, N-(2-chloro-6-methylphenyl)-2-((6-(4-((6-(2-(2,6-dioxopiperidin-3-yl)-6-fluoro-1,3-dioxoisoindolin-5-yl)-3,6-diazabicyclo[3.1.1]heptan-3-yl)methyl)piperidin-1-yl)-2-methylpyrimidin-4-yl)amino)thiazole-5-carboxamide], for which the IC50 in the assay with Kasumi-1 lay within 100 to 500 nM.
With `Cc1nc(Nc2ncc(C(=O)Nc3c(C)cccc3Cl)s2)cc(N2CCC(CN3CC4CCC(C3)N4c3ccc4c(c3)C(=O)N(C3CCC(=O)NC3=O)C4=O)CC2)n1` (stereo not shown) [GT-03629, N-(2-chloro-6-methylphenyl)-2-((6-(4-((8-(2-(2,6-dioxopiperidin-3-yl)-1,3-dioxoisoindolin-5-yl)-3,8-diazabicyclo[3.2.1]octan-3-yl)methyl)piperidin-1-yl)-2-methylpyrimidin-4-yl)amino)thiazole-5-carboxamide], the IC50 in the assay with Kasumi-1 and with SU-DHL-6 was 100 to 500 nM throughout.
`Cc1nc(Nc2ncc(C(=O)Nc3c(C)cccc3Cl)s2)cc(N2CCC(CN3CC4CC(C3)N4c3ccc4c(c3)C(=O)N(C3CCC(=O)NC3=O)C4=O)CC2)n1` (stereo not shown) [GT-03630, N-(2-chloro-6-methylphenyl)-2-((6-(4-((6-(2-(2,6-dioxopiperidin-3-yl)-1,3-dioxoisoindolin-5-yl)-3,6-diazabicyclo[3.1.1]heptan-3-yl)methyl)piperidin-1-yl)-2-methylpyrimidin-4-yl)amino)thiazole-5-carboxamide]: the values for the IC50 in the assay with Kasumi-1 and in the assay on SU-DHL-6 were at most 50 nM and 100 to 500 nM, respectively.

The record behind these values is patent US20250243210A1, “CRBN E3 LIGASE LIGAND COMPOUND, PROTEIN DEGRADER DEVELOPED BASED THEREON AND THEIR APPLICATIONS” (GLUETACS THERAPEUTICS (SHANGHAI) CO., LTD., priority 2021, published 2025).
